{"source": "paper PMC10720383", "about": "“Acetylcholinesterase Inhibition in Rats and Humans Following Acute Fenitrothion Exposure Predicted by Physiologically Based Kinetic Modeling-Facilitated Quantitative In Vitro to In Vivo Extrapolation” (Environmental Science & Technology, 2023)", "system": "CYP450s", "experiment": "in vitro", "type": "in vitro ADME, human", "conditions": "gender-mixed", "experimental": "In vitro incubations were performed to obtain kinetic parameters for the CYP450s-catalyzed conversion of FNT to FNO and MNP using gender-mixed rat and human liver microsomes. For the PON1-dominated detoxification of FNO to MNP, in vitro incubations were conducted with gender-mixed liver microsomes or plasma from rats and humans. Sample extraction with diisopropyl ether was performed before UPLC-PDA analysis. More details on in vitro incubations, sample extraction, UPLC-PDA analysis, and calculation of kinetic parameters are provided in the Supporting Information.\nSupplementary materials and methods\nChemical and biological materials\nFNT, acetylthiocholine iodide (ATC), 5,5’-dithiobis (2-nitrobenzoic acid) (DTNB), ethopropazine, tetraisopropyl pyrophosphoramide (iso-OMPA), perchloric acid (HClO4), trifluoroacetic acid (TFA), EDTA, MgCl2•6H2O, CaCl2•2H2O, NaH2PO4, Na2HPO4, Triton-X 100, Trizma® base and diisopropyl ether (DIPE) were ordered from Sigma-Aldrich (Amsterdam, The Netherlands). FNO was purchased from FUJIFILM Wako Pure Chemical Corporation (Tokyo, Japan), MNP and reduced nicotinamide adenine dinucleotide phosphate (NADPH) from Carbosynth Ltd. (Compton, UK). Acetonitrile (UPLC/MS grade), methanol (UPLC/MS grade) and ethanol (UPLC/MS grade) were ordered from Biosolve (Valkenswaard, The Netherlands). Chlorpyrifos-oxon was ordered from TRC-Canada (Toronto, Ontario, Canada). Ultrapure water was prepared using a Sartorius Arium® Pro ultrapure water system (Göttingen, Germany).\nHuman liver microsomes (pooled from 150 donors, mixed gender) and pooled male rat liver microsomes (Sprague-Dawley) were purchased from Corning (Amsterdam, The Netherlands). Pooled female rat liver microsomes (Sprague-Dawley) were ordered from Sigma-Aldrich (St. Louis, MO, USA). […] Human plasma (pooled from 25 donors, mixed gender) and rat plasma (Sprague-Dawley, mixed gender) were ordered from BioIVT (West Sussex, UK), and corresponding total protein concentrations were determined using BCA protein assay (Supporting Information). […]", "note": "Where two headings read alike, the source gives them in different places.", "data": [{"compound": "COP(=S)(OC)Oc1ccc([N+](=O)[O-])c(C)c1", "note": "[FNT, O,O-dimethyl O-4-nitro-m-tolyl phosphorothioate]", "values": [{"measurement": "Km", "setting": "both sexes, human, pH 7.4, human liver microsomes, read-out: Km, FNT to FNO (CYP450s-catalyzed)", "result": 21.6, "unit": "µM"}, {"measurement": "Km", "setting": "both sexes, human, pH 7.4, human liver microsomes, read-out: Km, FNT to MNP (CYP450s-catalyzed)", "result": 4.08, "unit": "µM"}, {"measurement": "Km", "setting": "human liver microsomes, read-out: Km, FNT to MNP (CYP450s-catalyzed)", "result": 4.08, "unit": "µM"}]}]}
